Publication PMC12490239, “Combining BET inhibition with SMAC mimetics restricts tumor growth and triggers immune surveillance in preclinical cancer models” (Cell Reports Medicine, 2025)

Key:
Assay in all cases: cells
Design in all cases: CellTiter-Glo 2.0 luminescence proliferation/viability assay, single agents, human tumour cell line panel
C70 = details: 96 h; single agent; read-out: IC50 SMACm
Summary of the method: (§1)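 Human tumour cell lines were seeded into assay plates and held at 37°C with 5% CO2 for twenty-four hours, then exposed in triplicate to rising concentrations of the SMAC mimetic, from 4.5 nM to 10 μM, with DMSO as control. After 96 h, viability was read as CellTiter-Glo2.0 luminescence to derive single-agent IC50 values.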

Calu-1 = details: Homo sapiens, Calu-1, 96 h; single agent; read-out: IC50 SMACm
Summary of the method: as §1

IM-95 = details: Homo sapiens, IM95, 96 h; single agent; read-out: IC50 SMACm
Summary of the method: as §1

HCC1588 = details: HCC1588, 96 h; single agent; read-out: IC50 SMACm
Summary of the method: as §1

NCI-H747 = details: Homo sapiens, NCI-H747, 96 h; single agent; read-out: IC50 SMACm
Summary of the method: as §1

Panc 04.03 = details: Homo sapiens, Panc 04.03, 96 h; single agent; read-out: IC50 SMACm
Summary of the method: as §1

CAPAN-2 = details: Homo sapiens, Capan-2, 96 h; single agent; read-out: IC50 SMACm
Summary of the method: as §1

ChaGo-K-1 = details: Homo sapiens, ChaGo-K-1, 96 h; single agent; read-out: IC50 SMACm
Summary of the method: as §1

C125PM = details: 96 h; single agent; read-out: IC50 SMACm
Summary of the method: as §1

SNU283 = details: 96 h; single agent; read-out: IC50 SMACm
Summary of the method: as §1

LK-2 = details: Homo sapiens, LK-2, 96 h; single agent; read-out: IC50 SMACm
Summary of the method: as §1

DLD-1 = details: Homo sapiens, DLD-1, 96 h; single agent; read-out: IC50 SMACm
Summary of the method: as §1

LIM2550 = details: 96 h; single agent; read-out: IC50 SMACm
Summary of the method: as §1

BxPC-3 = details: Homo sapiens, BXPC-3, 96 h; single agent; read-out: IC50 SMACm
Summary of the method: as §1

HCC1438 = details: 96 h; single agent; read-out: IC50 SMACm
Summary of the method: as §1

CN[C@@H](C)C(=O)Nc1ccc(-c2c(-c3cccnc3OC)nc3cc(C)ccn23)c(C#Cc2ccc3c(C)nccc3c2)n1 [SMACm, BI 891065]
IC50 (C70): 3.31 µM
IC50 (Calu-1): 8.41 µM
IC50 (IM-95): 1240 nM
IC50 (HCC1588): 3.07 µM
IC50 (NCI-H747): 5.06 µM
IC50 (Panc 04.03): 4.68 µM
IC50 (CAPAN-2): 8.59 µM
IC50 (ChaGo-K-1): 5.42 µM
IC50 (C125PM): 1260 nM
IC50 (SNU283): 3.78 µM
IC50 (LK-2): 4.15 µM
IC50 (DLD-1): 5.19 µM
IC50 (LIM2550): 2080 nM
IC50 (BxPC-3): 530 nM
IC50 (HCC1438): 2290 nM
